# Source: patent US9169254B2, “Spiroimidazolone derivative” (Chugai Seiyaku Kabushiki Kaisha, priority 2009, dated 2015)
# Molecular target: T1, human PTH1 receptor (Homo sapiens, UniProt Q03431)
# T1 sequence (Q03431 27-593): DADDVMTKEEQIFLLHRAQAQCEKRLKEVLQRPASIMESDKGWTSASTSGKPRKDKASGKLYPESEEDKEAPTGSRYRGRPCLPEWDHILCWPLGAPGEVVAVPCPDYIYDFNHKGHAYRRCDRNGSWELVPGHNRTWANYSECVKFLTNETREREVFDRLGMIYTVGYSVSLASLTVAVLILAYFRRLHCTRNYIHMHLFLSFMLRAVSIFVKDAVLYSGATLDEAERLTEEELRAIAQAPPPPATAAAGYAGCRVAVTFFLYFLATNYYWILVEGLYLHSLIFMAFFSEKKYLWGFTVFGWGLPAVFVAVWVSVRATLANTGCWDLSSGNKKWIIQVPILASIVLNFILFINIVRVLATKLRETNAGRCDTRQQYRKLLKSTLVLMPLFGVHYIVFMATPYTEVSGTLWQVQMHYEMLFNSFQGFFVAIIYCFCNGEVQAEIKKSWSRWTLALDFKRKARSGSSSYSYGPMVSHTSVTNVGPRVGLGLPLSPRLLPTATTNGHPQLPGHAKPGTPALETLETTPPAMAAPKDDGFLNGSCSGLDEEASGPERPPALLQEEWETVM
# Test: In vitro cAMP signal activity in HKRK-B7 cells (LLC-PK1 cells overexpressing the human PTH1 receptor)
# Type: cell-based
# Settings: HKRK-B7 cells; compound at 1×10^−3 M; cAMP produced as percentage of that produced by hPTH(1-34) at 100 nM
row,SMILES,cAMP production activity (%)
1,"Cc1cc2c(ccn2C[C@@H](O)CO)c(C)c1/C=C/S(=O)(=O)N1CCC2(CC1)N=C(C1CCC(CCC(F)(F)F)CC1)NC2=O (stereo partly drawn) [Compound 630, 8-{(E)-2-[1-((R)-2,3-dihydroxy-propyl)-4,6-dimethyl-1H-indol-5-yl]-ethenesulfonyl}-2-[4-(3,3,3-trifluoro-propyl)-cyclohexyl]-1,3,8-triaza-spiro[4.5]dec-1-en-4-one]",4.1
2,"CCCCC1CCC(C2=NC3(CCN(S(=O)(=O)/C=C/c4c(C)cc(N5C(=O)CNC5=O)cc4C)CC3)C(=O)N2)CC1 (stereo not shown) [Compound 631, 3-(4-{(E)-2-[2-(4-Butyl-cyclohexyl)-4-oxo-1,3,8-triaza-spiro[4.5]dec-1-ene-8-sulfonyl]-vinyl}-3,5-dimethyl-phenyl)-imidazolidine-2,4-dione]",65
3,"CCCC[C@H]1CC[C@H](C2=NC3(CCN(S(=O)(=O)/C=C/c4c(C)cc(N(CC5(C)COC5)C(C)=O)cc4C)CC3)C(=O)N2)CC1 [Compound 632, N-(4-{(E)-2-[2-(4-butyl-cyclohexyl)-4-oxo-1,3,8-triaza-spiro[4.5]dec-1-ene-8-sulfonyl]-vinyl}-3,5-dimethyl-phenyl)-N-(3-methyl-oxetan-3-ylmethyl)-acetamide]",51
4,"O=C1NC(C2CCCCC2)=NC12CCN(S(=O)(=O)/C=C/c1cccc3cccnc13)CC2 [Compound 633, 2-Cyclohexyl-8-((E)-2-quinolin-8-yl-ethenesulfonyl)-1,3,8-triaza-spiro[4.5]dec-1-en-4-one]",37
5,"O=C1Cc2c(/C=C/S(=O)(=O)N3CCC4(CC3)N=C(C3CCCCC3)NC4=O)cccc2N1 [Compound 634, 2-cyclohexyl-8-[(E)-2-(2-oxo-2,3-dihydro-1H-indol-4-yl)-ethenesulfonyl]-1,3,8-triaza-spiro[4.5]dec-1-en-4-one]",29
6,"Cc1cc(N2C(=O)CNC2=O)cc(C)c1/C=C/S(=O)(=O)N1CCC2(CC1)N=C(c1cccc(OC(F)(F)F)c1)NC2=O [Compound 635, 3-(3,5-Dimethyl-4-{(E)-2-[4-oxo-2-(3-trifluoromethoxy-phenyl)-1,3,8-triaza-spiro[4.5]dec-1-ene-8-sulfonyl]-vinyl}-phenyl)-imidazolidine-2,4-dione]",93
7,"Cc1cc(N2C(=O)CNC2=O)cc(C)c1/C=C/S(=O)(=O)N1CCC2(CC1)N=C(c1ccc(F)c(C(F)(F)F)c1)NC2=O [Compound 636, 3-(4-{(E)-2-[2-(4-Fluoro-3-trifluoromethyl-phenyl)-4-oxo-1,3,8-triaza-spiro[4.5]dec-1-ene-8-sulfonyl]-vinyl}-3,5-dimethyl-phenyl)-imidazolidine-2,4-dione]",88
8,"Cc1cc2c(/C=C/S(=O)(=O)N3CCC4(CC3)N=C(C3CCCCC3)NC4=O)cccc2[nH]1 [Compound 637, 2-Cyclohexyl-8-[(E)-2-(2-methyl-1H-indol-4-yl)-ethenesulfonyl]-1,3,8-triaza-spiro[4.5]dec-1-en-4-one]",38
9,"CN1CCCc2c(/C=C/S(=O)(=O)N3CCC4(CC3)N=C(C3CCCCC3)NC4=O)cccc21 [Compound 638, 2-cyclohexyl-8-[(E)-2-(1-methyl-1,2,3,4-tetrahydro-quinolin-5-yl)-ethenesulfonyl]-1,3,8-triaza-spiro[4.5]dec-1-en-4-one]",46
10,"Cc1cc(OCCC(O)CO)cc(C)c1/C=C/S(=O)(=O)N1CCC2(CC1)N=C(c1ccc(F)c(C(F)(F)F)c1)NC2=O (stereo not shown) [Compound 639, 8-{(E)-2-[4-(3,4-Dihydroxy-butoxy)-2,6-dimethyl-phenyl]-ethenesulfonyl}-2-(4-fluoro-3-trifluoromethyl-phenyl)-1,3,8-triaza-spiro[4.5]dec-1-en-4-one]",101
11,"[2H]C([2H])([2H])N(C(=O)OC(C)(C)C)c1cc(C)c(/C=C/S(=O)(=O)N2CCC3(CC2)N=C(c2ccc(F)c(C(F)(F)F)c2)NC3=O)c(C)c1 [Compound 640, (4-{(E)-2-[2-(4-fluoro-3-trifluoromethyl-phenyl)-4-oxo-1,3,8-triaza-spiro[4.5]dec-1-ene-8-sulfonyl]-vinyl}-3,5-dimethyl-phenyl)-[1,1,1-^2H3]methyl-carbamic acid tert-butyl ester]",26
12,"Cc1cc(C(=O)N2CCC(O)(CF)CC2)cc(C)c1/C=C/S(=O)(=O)N1CCC2(CC1)N=C(c1ccc(F)c(C(F)(F)F)c1)NC2=O [Compound 641, 8-{(E)-2-[4-(4-fluoromethyl-4-hydroxy-piperidine-1-carbonyl)-2,6-dimethyl-phenyl]-ethenesulfonyl}-2-(4-fluoro-3-trifluoromethyl-phenyl)-1,3,8-triaza-spiro[4.5]dec-1-en-4-one]",85
13,"Cc1cc(C(=O)N2CCC(C)(O)CC2)cc(C)c1/C=C/S(=O)(=O)N1CCC2(CC1)N=C(c1ccc(F)c(C(F)(F)F)c1)NC2=O [Compound 642, 2-(4-fluoro-3-trifluoromethyl-phenyl)-8-{(E)-2-[4-(4-hydroxy-4-methyl-piperidine-1-carbonyl)-2,6-dimethyl-phenyl]-ethenesulfonyl}-1,3,8-triaza-spiro[4.5]dec-1-en-4-one]",87
14,"O=C1NC(c2ccc(F)c(C(F)(F)F)c2)=NC12CCN(S(=O)(=O)/C=C/c1cccc3c1ccn3C[C@H](O)CO)CC2 [Compound 643, 8-{(E)-2-[1-((S)-2,3-dihydroxy-propyl)-1H-indol-4-yl]-ethenesulfonyl}-2-(4-fluoro-3-trifluoromethyl-phenyl)-1,3,8-triaza-spiro[4.5]dec-1-en-4-one]",94

# Second part, the compound after the results:
row,cAMP production activity (%),SMILES
1,75,"Cc1cc(C(=O)N2CCC3(CC2)COC3)cc(C)c1/C=C/S(=O)(=O)N1CCC2(CC1)N=C(c1ccc(F)c(C(F)(F)F)c1)NC2=O [Compound 644, 8-{(E)-2-[2,6-dimethyl-4-(2-oxa-7-aza-spiro[3.5]nonane-7-carbonyl)-phenyl]-ethenesulfonyl}-2-(4-fluoro-3-trifluoromethyl-phenyl)-1,3,8-triaza-spiro[4.5]dec-1-en-4-one]"
2,55,"O=C1NC(C2CCCCC2)=NC12CCN(S(=O)(=O)CCc1cccc3c1CCCN3)CC2 [Compound 645, 2-Cyclohexyl-8-[2-(1,2,3,4-tetrahydro-quinolin-5-yl)-ethanesulfonyl]-1,3,8-triaza-spiro[4.5]dec-1-en-4-one]"
3,99,"N#Cc1c[nH]c2cccc(CCS(=O)(=O)N3CCC4(CC3)N=C(C3CCCCC3)NC4=O)c12 [Compound 646, 4-[2-(2-cyclohexyl-4-oxo-1,3,8-triaza-spiro[4.5]dec-1-ene-8-sulfonyl)-ethyl]-1H-indole-3-carbonitrile]"
4,104,"CN(C)C(=O)n1ccc2cccc(CCS(=O)(=O)N3CCC4(CC3)N=C(C3CCCCC3)NC4=O)c21 [Compound 647, 7-[2-(2-cyclohexyl-4-oxo-1,3,8-triaza-spiro[4.5]dec-1-ene-8-sulfonyl)-ethyl]-indole-1-carboxylic acid dimethylamide]"
5,61,"O=C1NC(C2CCCCC2)=NC12CCN(S(=O)(=O)CCc1cccc3ncccc13)CC2 [Compound 648, 2-cyclohexyl-8-(2-quinolin-5-yl-ethanesulfonyl)-1,3,8-triaza-spiro[4.5]dec-1-en-4-one]"
6,40,"O=C(c1c[nH]c2cccc(CCS(=O)(=O)N3CCC4(CC3)N=C(C3CCCCC3)NC4=O)c12)C(F)(F)F [Compound 649, 2-cyclohexyl-8-{2-[3-(2,2,2-trifluoro-acetyl)-1H-indol-4-yl]-ethanesulfonyl}-1,3,8-triaza-spiro[4.5]dec-1-en-4-one]"
7,55,"CC(C)n1ccc2c(CCS(=O)(=O)N3CCC4(CC3)N=C(C3CCCCC3)NC4=O)cccc21 [Compound 650, 2-cyclohexyl-8-[2-(1-isopropyl-1H-indol-4-yl)-ethanesulfonyl]-1,3,8-triaza-spiro[4.5]dec-1-en-4-one]"
8,54,"O=C1NC(C2CCCCC2)=NC12CCN(S(=O)(=O)CCc1cccc3c1ccn3CCCCO)CC2 [Compound 651, 2-cyclohexyl-8-{2-[1-(4-hydroxy-butyl)-1H-indol-4-yl]-ethanesulfonyl}-1,3,8-triaza-spiro[4.5]dec-1-en-4-one]"
9,63,"CC(=O)Nc1ccc(CCS(=O)(=O)N2CCC3(CC2)N=C(C2CCCCC2)NC3=O)c(C#N)c1 [Compound 652, N-{3-cyano-4-[2-(2-cyclohexyl-4-oxo-1,3,8-triaza-spiro[4.5]dec-1-ene-8-sulfonyl)-ethyl]-phenyl}-acetamide]"
10,67,"O=C1NC(c2cccc(OC(F)(F)F)c2)=NC12CCN(S(=O)(=O)CCc1cccc3cnccc13)CC2 [Compound 653, 8-(2-Isoquinolin-5-yl-ethanesulfonyl)-2-(3-trifluoromethoxy-phenyl)-1,3,8-triaza-spiro[4.5]dec-1-en-4-one]"
11,50,"O=C1NC(c2cccc(OC(F)(F)F)c2)=NC12CCN(S(=O)(=O)CCc1cccc3ncccc13)CC2 [Compound 654, 8-(2-quinolin-5-yl-ethanesulfonyl)-2-(3-trifluoromethoxy-phenyl)-1,3,8-triaza-spiro[4.5]dec-1-en-4-one]"
